Data taken from US20210253575A1, “PYRROLIDINE AMINE COMPOUNDS FOR THE TREATMENT OF AUTOIMMUNE DISEASE” (Hoffmann-La Roche Inc., priority 2018, published 2021).

Target: T1, human TLR8 (Homo sapiens, UniProt Q9NR97)
T1 sequence (Q9NR97 27-1041): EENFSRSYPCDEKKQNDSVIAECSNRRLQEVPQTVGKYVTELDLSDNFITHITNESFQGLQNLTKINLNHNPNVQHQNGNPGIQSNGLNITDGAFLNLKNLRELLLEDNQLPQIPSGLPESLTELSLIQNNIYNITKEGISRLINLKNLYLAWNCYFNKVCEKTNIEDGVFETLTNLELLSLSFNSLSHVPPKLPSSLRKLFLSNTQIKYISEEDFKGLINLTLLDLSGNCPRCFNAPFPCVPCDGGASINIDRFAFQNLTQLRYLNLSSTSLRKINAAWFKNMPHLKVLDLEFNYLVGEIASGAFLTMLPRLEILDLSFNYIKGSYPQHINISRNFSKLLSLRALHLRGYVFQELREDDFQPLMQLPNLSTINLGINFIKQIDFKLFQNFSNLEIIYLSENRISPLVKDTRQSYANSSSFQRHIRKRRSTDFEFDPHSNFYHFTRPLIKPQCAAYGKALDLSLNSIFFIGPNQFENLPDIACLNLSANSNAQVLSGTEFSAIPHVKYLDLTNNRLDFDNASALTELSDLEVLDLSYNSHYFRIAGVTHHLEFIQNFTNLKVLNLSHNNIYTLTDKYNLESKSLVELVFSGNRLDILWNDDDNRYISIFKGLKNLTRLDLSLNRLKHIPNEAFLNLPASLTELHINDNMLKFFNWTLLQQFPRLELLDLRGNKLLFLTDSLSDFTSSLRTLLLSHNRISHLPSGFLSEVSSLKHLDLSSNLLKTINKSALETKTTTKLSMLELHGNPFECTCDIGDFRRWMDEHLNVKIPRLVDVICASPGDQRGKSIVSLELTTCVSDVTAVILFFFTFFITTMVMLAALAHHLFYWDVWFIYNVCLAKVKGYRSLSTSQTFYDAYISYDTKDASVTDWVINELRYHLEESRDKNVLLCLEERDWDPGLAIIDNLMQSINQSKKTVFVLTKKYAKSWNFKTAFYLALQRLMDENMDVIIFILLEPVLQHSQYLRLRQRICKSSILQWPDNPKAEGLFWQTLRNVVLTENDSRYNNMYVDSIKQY
Assay: HEK293-Blue-hTLR-8 cells assay (SEAP reporter, R848 stimulation)
Type: cell-based
Details: HEK293-Blue-hTLR8 cells, R848 ligand, 20 hrs incubation
How it was run: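 Antagonism was measured in HEK293-Blue-hTLR8 cells with an NF-κB/AP-1-driven SEAP reporter. Cells were stimulated with R848 (10 μL of 60 uM stock) alongside compound (1% DMSO) for 20 hrs at 37° C. Supernatant SEAP was read with QUANTI-Blue after 2 hrs, absorbance at 620-655 nm.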

SMILES | IC50
N#Cc1ccc(N2CC(CN3CCNCC3)C3(CC3)C2)c2nccnc12 (centres unmarked) [Example 3, 8-[7-(piperazin-1-ylmethyl)-5-azaspiro[2.4]heptan-5-yl]quinoxaline-5-carbonitrile] | 12 nM
N#Cc1ccc(N2CC(CN3CC4CCC(C3)C4N)C3(CC3)C2)c2nccnc12 (centres unmarked) [Example 4, 8-[7-[(8-Amino-3-azabicyclo[3.2.1]octan-3-yl)methyl]-5-azaspiro[2.4]heptan-5-yl]quinoxaline-5-carbonitrile] | 38 nM
CN(C)[C@@H]1CCN(C[C@H]2CN(c3ccc(C#N)c4nccnc34)C[C@@H]2C(F)(F)F)C1 [Example 83, 8-[(3S,4R)-3-[[(3R)-3-(dimethylamino)pyrrolidin-1-yl]methyl]-4-(trifluoromethyl)pyrrolidin-1-yl]quinoxaline-5-carbonitrile] | 65 nM
CN1CCC2(CCN(C[C@H]3CN(c4ccc(C#N)c5nccnc45)C[C@@H]3C(F)(F)F)C2)C1 (stereo partly drawn) [Example 84, 8-[(3S,4R)-3-[(7-methyl-2,7-diazaspiro[4.4]nonan-2-yl)methyl]-4-(trifluoromethyl)pyrrolidin-1-yl]quinoxaline-5-carbonitrile] | 57 nM
CC1(CN)CCN(C[C@H]2CN(c3ccc(C#N)c4nccnc34)C[C@@H]2C(F)(F)F)C1 (stereo partly drawn) [Example 85, 8-[(3S,4R)-3-[[3-(aminomethyl)-3-methyl-pyrrolidin-1-yl]methyl]-4-(trifluoromethyl)pyrrolidin-1-yl]quinoxaline-5-carbonitrile] | 75 nM
